Assay results reported in US11185511B2, “Antifungal topical composition and methods of treatment” (priority 2013, dated 2021).
“Also recorded” adds a separate entry of the source. Like-named read-outs stand apart in the source and are kept apart here.

Tests used:
[1] = test system: Candida albicans; assay: Chequerboard titration test (MIC, FICI) against clinical isolate of Candida albicans; type: cell-based; settings: for Fold reduction in MIC of drug when combined with PHMB: FIG. 3; for MIC when combined with PHMB: MIC of the antifungal in combination with PHMB; for FICI / Type of interaction: antifungal combined with PHMB
Experimental: (§1) In vitro susceptibility of a clinical isolate of Candida albicans, Saccharomyces cerevisiae NOD 24 and S cerevisiae EBY 100 to the combination of the antifungal agent and PHMB was assessed using chequerboard assay. Interaction between the drugs and PHMB, formation of nanoparticles and cellular uptake was also assessed.
(§2) Yeast inoculum was prepared by picking five colonies from 24 hrs grown culture in SGA and mixing in RPMI 1640 with MOPS. The optical density of the mixture was adjusted spectrophotometrically to 1 which is equivalent to 3×10^7 Colony Forming Units of yeast/mi. This suspension was further diluted in RPMI 1640 with MOPS to give final inoculum size of 0.5×10^4 CFU/ml.
(§3) Chequer board titration test was carried out in sterile 96-well plates as per CLSI recommended standard procedure to test the antifungal effect of drugs alone and in combination with PHMB. RPMI 1640 medium buffered with MOPS was used as test medium. Dilutions of drug was prepared the test medium if the stock was made in DMSO and in case of stocks made in water further dilutions of drug was in water itself. Tested concentrations were: nystatin 0.000039 mg/ml to 0.02 mg/ml, amphotericin B 0.032 mg/ml to 0.0000625 mg/ml, berberine 0.01 mg/ml to 0.00002 mg/ml, ketoconazole 0.032 mg/ml to 0.0000625 mg/ml and terbinafine 0.16 mg/ml to 0.00031 mg/ml. Growth control and sterility control was present in all plates. All the plates were prepared in triplicates.
(§4) The plates were sealed with paraffin foil to prevent evaporation and kept at 37° C. for C albicans and 30° C. for S cererevisiae. MIC was recorded visually, aided with Powerwave 340 universal microplate spectrophotometer (Biotek) after 24 hours for C albicans and S cerevisiae NOD 24. […] MIC was defined as the lowest concentration at which there is no visible growth. FICI was used to analyse the drug interactions in vitro and was calculated using the equation given below: […]

[2] = Particle size by dynamic light scattering (DLS); type: physicochemical; settings: for Average size of particles (DLS): combined with PHMB in the ratio 1:3, PBS
Experimental: Dynamic light scattering (DLS) was used to estimate size of complexes formed. It is based on the principle that by measuring scattered light from particles in motion their size can be determined. […] Particle size was determined using Zetasizer S (Malvern instruments, UK).

[3] = test system: Saccharomyces cerevisiae EBY 100; assay: Chequerboard titration test (MIC, FICI) against Saccharomyces cerevisiae EBY 100; type: cell-based; settings: for Fold reduction in MIC of drug when combined with PHMB: S cerevisiae EBY100, FIG. 1; for MIC when combined with PHMB: S cerevisiae EBY 100, MIC of the antifungal in combination with PHMB; for FICI / Type of interaction: S cerevisiae EBY 100, antifungal combined with PHMB; for MIC: Saccharomyces cerevisiae
Experimental: as §1, §2, §3, §4

[4] = test system: Saccharomyces cerevisiae NOD 24; assay: Chequerboard titration test (MIC, FICI) against Saccharomyces cerevisiae NOD 24; type: cell-based; settings: for Fold reduction in MIC of drug when combined with PHMB: S cerevisiae NOD 24, FIG. 2; for MIC when combined with PHMB: S cerevisiae NOD 24, MIC of the antifungal in combination with PHMB; for FICI / Type of interaction: S cerevisiae NOD 24, antifungal combined with PHMB; for MIC: Saccharomyces cerevisiae, NOD24
Experimental: as §1, §2, §3, §4

[5] = test system: Candida albicans, Saccharomyces cerevisiae NOD 24 and S cerevisiae EBY 100; settings: chequerboard assay, organism not specified
Experimental: as §1, §3, §4
Wilcoxon signed rank test was used to statistically analyse changes in MICs of antifungals when combined with PHMB. P value less than 0.05 was considered significant. Statistical analysis was done using SPPSS version 2.0 software.

[6] = PHMB concentration when combined with the labelled drug
[7] = RPMI 1640 with MOPS, 37° C., 24 hours
[8] = combined with PHMB in the ratio 1:3
[9] = S cerevisiae EBY 100, PHMB concentration when combined with the labelled drug
[10] = S cerevisiae EBY 100, RPMI 1640 with MOPS, 30° C., 48 hours
[11] = S cerevisiae NOD 24, PHMB concentration when combined with the labelled drug
[12] = S cerevisiae NOD 24, RPMI 1640 with MOPS, 30° C., 24 hours
[13] = PHMB concentration when combined with the labelled drug, read-out: MIC of PHMB with antifungals
[14] = EBY100, S cerevisiae EBY 100, RPMI 1640 with MOPS, 30° C., 48 hours, read-out: MIC of antifungals alone
[15] = S cerevisiae NOD 24, PHMB concentration when combined with the labelled drug, read-out: MIC of PHMB with antifungals
[16] = S cerevisiae NOD 24, RPMI 1640 with MOPS, 30° C., 24 hours, read-out: MIC of antifungals alone
[17] = RPMI 1640 with MOPS, 37° C., 24 hours, read-out: MIC of antifungals alone

SMILES	Fold reduction in MIC of drug when combined with PHMB [1]	MIC when combined with PHMB ([1]; 37° C., 24 hours)	MIC of PHMB with antifungals [1, 6]	MIC of antifungals alone [1, 7]	FICI [1]	Type of interaction [1]	Nanoparticles with PHMB observed or not (DLS) [2, 8]	Fold reduction in MIC of drug when combined with PHMB [3]	MIC when combined with PHMB ([3]; 30° C., 48 hours)	MIC of PHMB with antifungals [3, 9]	FICI [3]	Type of interaction [3]	Fold reduction in MIC of drug when combined with PHMB [4]	MIC when combined with PHMB ([4]; 30° C., 24 hours)	FICI [4]	Type of interaction [4]	Interaction with PHMB (synergy), in words [5]	MIC [1, 13]	MIC [4, 15]	MIC [4, 16]	also measured
C[C@@H]1[C@H](O)[C@@H](C)/C=C/C=C/C=C/C=C/C=C/C=C/C=C/[C@H](O[C@@H]2O[C@H](C)[C@@H](O)[C@H](N)[C@@H]2O)C[C@@H]2O[C@](O)(C[C@@H](O)C[C@@H](O)[C@H](O)CC[C@@H](O)C[C@@H](O)CC(=O)O[C@H]1C)C[C@H](O)[C@H]2C(=O)O [Amphotericin B]	2 fold	0.5 µg/mL	0.031 µg/mL	1 µg/mL	0.53	No interaction (>0.5 but ≤4 is ‘no interaction’)	Nanoparticles were not detected	4 fold	4 µg/mL	0.5 µg/mL	0.5	Synergistic (FICI≤0.5 is ‘synergistic effect’)	16 fold	0.25 µg/mL	0.56	No interaction (>0.5 but ≤4 is ‘no interaction’)	Synergistic effect				MIC of antifungals alone [3, 10]: 16 µg/mL; Type of interaction ([3]; listed as amphotericin B): synergy; MIC of PHMB with antifungals [4, 11]: 0.5 µg/mL; MIC of antifungals alone [4, 12]: 4 µg/mL
COc1ccc2cc3[n+](cc2c1OC)CCc1cc2c(cc1-3)OCO2 [Berberine]	2 fold	31.25 µg/mL			0.53	No interaction (>0.5 but ≤4 is ‘no interaction’)	Nanoparticles were observed	2 fold	25 µg/mL		0.75	No interaction (>0.5 but ≤4 is ‘no interaction’)	16 fold	0.56 µg/mL	0.56	No interaction (>0.5 but ≤4 is ‘no interaction’)		0.031 µg/mL	0.5 µg/mL	50 µg/mL	Share of particles around 22.2±1.5 nm ([2]; combined with PHMB 1:3): 64.5%; Average size of particles (DLS) [2]: 22.22±1.591 nm; Average size of particles (DLS) ([2]; listed as berberine): around 22.2±1.5 nm; MIC ([3]; EBY100, S cerevisiae EBY 100, PHMB concentration when combined with the labelled drug, read-out: MIC of PHMB with antifungals): 0.5 µg/mL; MIC [3, 14]: 50 µg/mL
CC(=O)N1CCN(c2ccc(OCC3COC(Cn4ccnc4)(c4ccc(Cl)cc4Cl)O3)cc2)CC1 (stereo not shown) [Ketoconazole]	4 fold	1 µg/mL			0.281	Synergistic (FICI≤0.5 is ‘synergistic effect’)	Nanoparticles were observed	4 fold	0.31 µg/mL		0.263	Synergistic (FICI≤0.5 is ‘synergistic effect’)	4 fold	1 µg/mL	0.5	Synergistic (FICI≤0.5 is ‘synergistic effect’)	Strong synergism; also recorded: Synergistic effect	0.062 µg/mL	0.5 µg/mL	16 µg/mL	MIC [1, 17]: 4 µg/mL; Polydispersity index ([2]; combined with PHMB 1:3): > 1; Share of particles of size less than 10 nm ([2]; combined with PHMB 1:3): less than 10%; Peak 1 Average size (DLS) [2, 8]: 1.15±0.017; Peak 2 Average size (DLS) [2, 8]: 5.88±0.71; Peak 3 Average size (DLS) [2, 8]: 498.9±65.2; MIC ([3]; EBY100, 48 h, read-out: MIC of antifungals alone): 1.25 µg/mL
C[C@@H]1[C@H](O)[C@@H](C)/C=C/C=C/CC/C=C/C=C/C=C/C=C/C(O[C@H]2O[C@H](C)[C@@H](O)[C@H](N)[C@@H]2O)CC2O[C@](O)(CC(O)C(O)CCC(O)CC(O)CC(O)CC(=O)O[C@H]1C)CC(O)C2C(=O)O (stereo partly shown) [Nystatin]	2 fold	2.5 µg/mL	0.5 µg/mL	5 µg/mL	1	No interaction (>0.5 but ≤4 is ‘no interaction’)	Nanoparticles were not detected	2 fold	2.5 µg/mL	0.062 µg/mL	0.53	No interaction (>0.5 but ≤4 is ‘no interaction’)	4 fold	0.625 µg/mL	0.75	No interaction (>0.5 but ≤4 is ‘no interaction’)					MIC of antifungals alone [3, 10]: 5 µg/mL; MIC of PHMB with antifungals [4, 11]: 0.5 µg/mL; MIC of antifungals alone [4, 12]: 2.5 µg/mL
CN(C/C=C/C#CC(C)(C)C)Cc1cccc2ccccc12 [Terbinafine]	4 fold	1 µg/mL			0.5	Synergistic (FICI≤0.5 is ‘synergistic effect’)		8 fold	2.5 µg/mL		0.14	Synergistic (FICI≤0.5 is ‘synergistic effect’)	16 fold	2.5 µg/mL	0.312	Synergistic (FICI≤0.5 is ‘synergistic effect’)	Strong synergism; also recorded: Synergistic effect	0.5 µg/mL	0.062 µg/mL	4 µg/mL	MIC [1, 17]: 4 µg/mL; MIC [3, 14]: 20 µg/mL
